Laboratory results as given in the NIST ThermoML archive (doi:10.1016/j.jct.2016.04.014).

Test: xn = mol fraction of the nth substance listed
Conditions: Liquid, Vibrating tube method

CCCCCCCC [octane] + CCCCCCC
mass density [kg/m3]
Conditions | 100 kPa | 500 kPa | 5000 kPa | 10000 kPa | 15000 kPa | 20000 kPa | 25000 kPa | 30000 kPa | 35000 kPa | 40000 kPa
293.15 K, x2 = 0.25 | 698.22 | 698.6 | 702.4 | 706.4 | 710.2 | 713.8 | 717.2 | 720.4 | 723.6 | 726.6
293.15 K, x2 = 0.5002 | 693.9 | 694.3 | 698.1 | 702.2 | 706 | 709.7 | 713.2 | 716.5 | 719.6 | 722.7
293.15 K, x2 = 0.7502 | 689 | 689.4 | 693.4 | 697.5 | 701.4 | 705.1 | 708.7 | 712 | 715.2 | 718.4
303.15 K, x2 = 0.25 | 690.1 | 690.4 | 694.5 | 698.8 | 702.8 | 706.6 | 710.2 | 713.6 | 716.9 | 720.1
303.15 K, x2 = 0.5002 | 685.6 | 686 | 690.2 | 694.5 | 698.6 | 702.5 | 706.1 | 709.6 | 712.9 | 716.1
303.15 K, x2 = 0.7502 | 680.7 | 681 | 685.3 | 689.7 | 693.9 | 697.8 | 701.6 | 705.1 | 708.5 | 711.7
313.15 K, x2 = 0.25 | 681.8 | 682.2 | 686.5 | 691.1 | 695.4 | 699.4 | 703.2 | 706.8 | 710.2 | 713.5
313.15 K, x2 = 0.5002 | 677.3 | 677.7 | 682.1 | 686.8 | 691.1 | 695.2 | 699.1 | 702.7 | 706.2 | 709.6
313.15 K, x2 = 0.7502 | 672.2 | 672.6 | 677.2 | 681.9 | 686.3 | 690.5 | 694.4 | 698.1 | 701.7 | 705.1
323.15 K, x2 = 0.25 | 673.4 | 673.8 | 678.5 | 683.4 | 687.9 | 692.1 | 696.1 | 699.9 | 703.6 | 707
323.15 K, x2 = 0.5002 | 668.7 | 669.2 | 674 | 678.9 | 683.6 | 687.9 | 692 | 695.8 | 699.5 | 703
323.15 K, x2 = 0.7502 | 663.5 | 664 | 668.9 | 674 | 678.7 | 683.1 | 687.3 | 691.2 | 694.9 | 698.5
333.15 K, x2 = 0.25 | 664.9 | 665.4 | 670.4 | 675.6 | 680.4 | 684.9 | 689.2 | 693.2 | 696.9 | 700.6
333.15 K, x2 = 0.5002 | 660.2 | 660.6 | 665.8 | 671.1 | 676 | 680.6 | 684.9 | 689 | 692.8 | 696.5
333.15 K, x2 = 0.7502 | 654.8 | 655.3 | 660.6 | 666 | 671.1 | 675.8 | 680.2 | 684.3 | 688.2 | 692
353.15 K, x2 = 0.25 | 647.5 | 648.1 | 653.9 | 659.9 | 665.4 | 670.5 | 675.2 | 679.6 | 683.7 | 687.7
353.15 K, x2 = 0.5002 | 642.5 | 643.1 | 649.1 | 655.2 | 660.8 | 666 | 670.8 | 675.3 | 679.5 | 683.6
353.15 K, x2 = 0.7502 | 636.9 | 637.4 | 643.6 | 649.9 | 655.7 | 661 | 665.9 | 670.4 | 674.7 | 678.9
373.15 K, x2 = 0.25 | – | 630.3 | 637.1 | 644.1 | 650.3 | 656 | 661.2 | 666.1 | 670.7 | 675.1
373.15 K, x2 = 0.5002 | – | 625 | 632 | 639.2 | 645.6 | 651.4 | 656.7 | 661.7 | 666.3 | 670.8
373.15 K, x2 = 0.7502 | – | 619 | 626.3 | 633.6 | 640.2 | 646.2 | 651.7 | 656.7 | 661.5 | 666
